The values that follow come from patent US20260207621A1 (Vividion Therapeutics, Inc., priority 2022, published 2026).

pIC50: −log10 of the molar value.

In one experiment the test system is Nrf2. The experiment in a line: Nrf2 antagonism assay: ARE luciferase reporter in KYSE-70 cells. The experiment is classed as cell-based. The following applies: Homo sapiens, KYSE-70, KYSE-70 cells, positive Imax corresponds to Nrf2 antagonism, read-out: KYSE70 Cellular ARE Luciferase Imax (%). The text has this:
NRF2 binds to a promoter region, antioxidant response element (ARE), to initiate expression of multiple genes. ARE luciferase reporter assays are used to test whether a ligand can activate or repress the expression of target genes using luciferase as a reporter gene.
KYSE-70 is an esophageal squamous cell carcinoma cell line with a Nrf2 mutation at amino acid position W24C. This mutation lowers the affinity between the E3 ligase that includes KEAP1 and Nrf2, resulting in a state in which the synthesis rate of new Nrf2 is faster than the E3's degradation rate of Nrf2, resulting in a “Nrf2 high” state. In KYSE-70 cells, genes are inserted directly after the ARE that trigger the expression of luciferase. Without a NRF2 antagonist in this modified KYSE70 cell line which has an inherently “NRF2 high state”, luciferase is expressed, and a signal is observed.
Nrf2 antagonists bind at C151 of KEAP1 and stabilize the E3 which results in an increased degradation rate of Nrf2. Increased degradation of Nrf2 results in less expression of luciferase, and therefore a less intense signal.
An IC50 is generated from the dose-response curve and an Imax. A positive Imax corresponds to Nrf2 antagonism. Imax >90% correlates with in vivo tumor grown inhibition. Compounds with Imax >50% were included in this description.
Background: Reporter assays use an easily measured gene product as a stand-in for the process of interest.

A further experiment concerns the target T1, KEAP1 C151 (Homo sapiens, UniProt Q14145).
T1 construct: treating 500 μg of cell lysate generated from MDA-MB-468 breast cancer cells with DMSO or compound; endogenous in cells; host or cells: MDA-MB-468 breast cancer cell lysate
The experiment in a line: Nrf2 TMT measurement: in vitro TE50 for KEAP1 C151 (IA-DTB competition, targeted TMT mass spectrometry) in MDA-MB-468 cell lysate. It is filed as binding. The following applies: in vitro target engagement of KEAP1 C151, targeted TMT, read-out: KEAP1_C151 TE50. As for the experimental part: In vitro TE50 values for KEAP_C151 were obtained by treating 500 μg of cell lysate generated from MDA-MB-468 breast cancer cells with DMSO or compound for 1 hour at room temperature followed by the addition of 200 μM IA-DTB (in DMSO) for one hour at room temperature. Samples were then precipitated by the addition of 8× ice cold acetonitrile and incubated at −80° C. for two hours. Protein was then pelleted by centrifugation (4,200 RPM, 45 min, 4° C.). The pelleted material was resuspended in 9M Urea, 50 mM ammonium bicarbonate and proteins were reduced and alkylated by the addition of DTT and iodoacetamide (10 and 30 mM, respectively). Following reduction and alkylation, samples were exchanged into 2M urea (Zeba spin desalting plates, Thermo Fisher) and digested with Trypsin. IA-DTB labeled peptides were isolated with streptavidin agarose resin. Enriched peptides were eluted by the addition of 50% acetonitrile (ACN) 0.1% Formic Acid (FA) and dried in a SpeedVac vacuum concentrator.
Dried peptides were resuspended in 0.2 M EPPS pH 8.5 and treated with 6.5 μL of 11-plex tandem mass tag (TMT) (8.3 μg/μL in dry ACN) for 2 hours at room temperature. Reactions were quenched by the addition of 6.5 μL of 5% Hydroxylamine. Samples were then combined and desalted on a Biotage Evolute express ABN plate (600-0010-PX01).
Targeted TMT. Targeted TMT measurements were collected using an Orbitrap LumosTribrid Mass Spectrometer (Thermo Scientific) coupled to an UltiMate 3000 Series Rapid Separation LC system and autosampler (Thermo Scientific Dionex). Peptides were eluted onto a custom C18 capillary analytical column (75-μm inner diameter fused silica, packed with Acclaim PepMap C18 resin (Thermo Scientific)) using an Acclaim PepMap 100 (Thermo 164535) loading column, and separated at a flow rate of 1.0 μl min−1. Data were acquired using a specific MS3-based TMT method targeting the peptide containing KEAP1 C151 (C(+324.2)[…], +3 charge state) where MS2 peptide fragmentation is triggered upon detection of the peptide precursor ion. Subsequent MS3 analysis was then performed using pre-selected peptide fragment ions that were isolated for fragmentation using synchronous precursor selection. RAW files were converted to MZXML format and searched with the SEQUEST algorithm using the MassPike software package. TMT quantitation was performed with a filter requiring at least ten summed signal-to-noise for control channels. Quantified signals were used for dose response curve-fitting and IC50 calculation using R's drc package.

T1 sequence (Q14145 whole entry): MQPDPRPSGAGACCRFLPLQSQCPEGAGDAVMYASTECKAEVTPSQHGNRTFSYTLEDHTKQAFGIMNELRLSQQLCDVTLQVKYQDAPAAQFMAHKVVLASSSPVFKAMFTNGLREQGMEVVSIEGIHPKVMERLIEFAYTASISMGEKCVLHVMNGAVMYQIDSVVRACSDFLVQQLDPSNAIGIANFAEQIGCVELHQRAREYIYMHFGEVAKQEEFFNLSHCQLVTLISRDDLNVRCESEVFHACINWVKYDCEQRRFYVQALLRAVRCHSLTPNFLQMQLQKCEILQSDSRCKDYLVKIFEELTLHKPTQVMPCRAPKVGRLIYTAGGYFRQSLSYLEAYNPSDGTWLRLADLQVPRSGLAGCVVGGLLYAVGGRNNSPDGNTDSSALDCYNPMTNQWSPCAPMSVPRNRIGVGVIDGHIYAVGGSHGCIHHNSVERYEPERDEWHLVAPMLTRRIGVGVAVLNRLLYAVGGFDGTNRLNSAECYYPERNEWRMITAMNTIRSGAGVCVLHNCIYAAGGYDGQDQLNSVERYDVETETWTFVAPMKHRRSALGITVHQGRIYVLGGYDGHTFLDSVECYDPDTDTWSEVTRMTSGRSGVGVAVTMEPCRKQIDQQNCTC

On to `C=CC(=O)N1CCOCC1c1cc(Cl)cc(-c2ccccc2)c1` (racemic) [Compound 1, 1-(3-(5-chloro-[1,1′-biphenyl]-3-yl)morpholino)prop-2-en-1-one], for which the Emax in the experiment with Nrf2 came to 56%. Besides, the pIC50 at KEAP1 C151 is 6.39.
Regarding `C=CC(=O)N1CCOCC12COc1c(-c3ccccc3)cc(Cl)cc12` (racemic) [Compound 7, 1-(5-chloro-7-phenyl-2H-spiro[benzofuran-3,3′-morpholin]-4′-yl)prop-2-en-1-one], the Emax in the experiment with Nrf2 was 55%. Also, at KEAP1 C151, the pIC50 is 5.28.
For `C=CC(=O)N1CCS(=O)(=O)CC1c1cc(Cl)cc(C2CCOCC2)c1` (racemic) [Compound 28, 1-(3-(3-chloro-5-(tetrahydro-2H-pyran-4-yl)phenyl)-1,1-dioxidothiomorpholino)prop-2-en-1-one] the same measures were 50% and 6.82.
As to `C=CC(=O)N1CCS(=O)(=O)CC1c1cc(Cl)cc(-c2ccn(C)c(=O)c2)c1` (racemic) [Compound 29, 4-(3-(4-acryloyl-1,1-dioxidothiomorpholin-3-yl)-5-chlorophenyl)-1-methylpyridin-2(1H)-one], the Emax with Nrf2 is 62%. At KEAP1 C151, the pIC50 is 6.48.
For `C=CC(=O)N1CCCOCC1c1cc(Cl)cc(-c2ncnc(N)n2)c1` (racemic) [Compound 162, 1-(3-(3-(4-amino-1,3,5-triazin-2-yl)-5-chlorophenyl)-1,4-oxazepan-4-yl)prop-2-en-1-one], in the experiment with Nrf2, the Emax came out at 80%. Besides, the pIC50 on KEAP1 C151 was 6.22.
As for `C=CC(=O)N1CCOC[C@H]1c1cc(Cl)cc(-c2cccc(NC(C)=O)c2)c1` (single isomer, unassigned) [Compound 2], the Emax in the experiment with Nrf2 stood at 52%. Besides, on KEAP1 C151, the pIC50 is 7.97.
For `C=CC(=O)N1CCOCC1c1cc(Cl)cc(C2CCOCC2)c1` (single isomer, unassigned) [Compound 5, 1-(3-(3-chloro-5-(tetrahydro-2H-pyran-4-yl)phenyl)morpholino)prop-2-en-1-one] the same measures were 70% and 6.89.
For `C=CC(=O)N1CCN(S(C)(=O)=O)CC1c1cc(Cl)cc(-c2ccnc(NC(C)=O)c2)c1` (single isomer, unassigned) [Compound 6, N-(4-(3-(1-acryloyl-4-(methylsulfonyl)piperazin-2-yl)-5-chlorophenyl)pyridin-2-yl)acetamide] the same measures were 58% and 8.59.
As to `C=CC(=O)N1CCOCC1c1cc(C#N)cc(-c2ncccn2)c1` (single isomer, unassigned) [Compound 8, 3-(4-acryloylmorpholin-3-yl)-5-(pyrimidin-2-yl)benzonitrile], in the experiment on Nrf2, the Emax is 53%. Further, the pIC50 on KEAP1 C151 was 7.26.
Consider `C=CC(=O)N1CCOC[C@H]1c1cc(Cl)cc(-c2nnn(C)n2)c1` (single isomer, unassigned) [Compound 9], for which the Emax with Nrf2 was found to be 76%. In addition, the pIC50 at KEAP1 C151 was 7.22.
Take `C=CC(=O)N1CCOC[C@H]1c1cc(Cl)cc(-c2ncccn2)c1` (single isomer, unassigned) [Compound 10]: the Emax with Nrf2 was found to be 79%. Also, the pIC50 at KEAP1 C151 was 7.64.
For `C=CC(=O)N1CCOCC1c1cc(Cl)cc(-c2cc[nH]c(=O)c2)c1` (single isomer, unassigned) [Compound 11, 4-(3-(4-acryloylmorpholin-3-yl)-5-chlorophenyl)pyridin-2(1H)-one] the same measures were 79% and 7.17.
For the compound `C=CC(=O)N1CCOC[C@H]1c1cc(Cl)cc(-c2ccnc(N3CCCC3=O)c2)c1` (single isomer, unassigned) [Compound 12], the Emax with Nrf2 is 68%. Moreover, on KEAP1 C151, the pIC50 is 8.41.
As to `C=CC(=O)N1CCOC[C@H]1c1cc(Cl)cc(-c2ccn(C)c(=O)c2)c1` (single isomer, unassigned) [Compound 13], the Emax with Nrf2 was 72%. For the same compound, the pIC50 at KEAP1 C151 was 7.30.
For `C=CC(=O)N1CCOCC1c1cc(Cl)cc(-c2ccnnc2)c1` (single isomer, unassigned) [Compound 14, 1-(3-(3-chloro-5-(pyridazin-4-yl)phenyl)morpholino)prop-2-en-1-one], the Emax in the experiment with Nrf2 worked out at 55%. Also, the pIC50 at KEAP1 C151 is 6.84.
As for `C=CC(=O)N1CCN(S(C)(=O)=O)C[C@H]1c1cc(Cl)cc(-c2cc[nH]c(=O)c2)c1` (single isomer, unassigned) [Compound 15], the Emax in the experiment with Nrf2 amounted to 57%. Further, the pIC50 on KEAP1 C151 is 7.66.
For `C=CC(=O)N1CCN(S(C)(=O)=O)C[C@H]1c1cc(Cl)cc(-c2ccnc(N3CCCC3=O)c2)c1` (single isomer, unassigned) [Compound 16], the Emax in the experiment with Nrf2 amounted to 62%. Further, the pIC50 at KEAP1 C151 was 8.66.
For `C=CC(=O)N1CCN(C(C)=O)C[C@H]1c1cc(Cl)cc(-c2ncccn2)c1` (single isomer, unassigned) [Compound 17] the same measures were 65% and 7.02.
For `C=CC(=O)N1[C@H](C)COC[C@H]1c1cc(Cl)cc(-c2ccnc(N3CCCC3=O)c2)c1` (single isomer, unassigned) [Compound 18] the same measures were 69% and 8.00.
`C=CC(=O)N1CCOC[C@H]1c1cc(Cl)cc(-c2ncc(F)cn2)c1` (single isomer, unassigned) [Compound 19]: the Emax in the experiment on Nrf2 was found to be 84%. Also, the pIC50 on KEAP1 C151 is 7.48.
Regarding `C=CC(=O)N1CCN(C(C)=O)C[C@H]1c1cc(Cl)cc(C2CCOCC2)c1` (single isomer, unassigned) [Compound 26], in the experiment on Nrf2, the Emax came out at 56%. The pIC50 at KEAP1 C151 is 7.06.
As for `C=CC(=O)N1CCS(=O)(=O)CC1c1cc(Cl)cc(-c2ncccn2)c1` (single isomer, unassigned) [Compound 31, 1-(3-(3-chloro-5-(pyrimidin-2-yl)phenyl)-1,1-dioxidothiomorpholino)prop-2-en-1-one], the Emax in the experiment with Nrf2 was 66%. Moreover, at KEAP1 C151, the pIC50 is 7.44.
As to `C=CC(=O)N1CCS(=O)(=O)CC1c1cc(Cl)cc(-c2nnn(C)n2)c1` (single isomer, unassigned) [Compound 32, 1-(3-(3-chloro-5-(2-methyl-2H-tetrazol-5-yl)phenyl)-1,1-dioxidothiomorpholino)prop-2-en-1-one], the Emax in the experiment on Nrf2 is 52%. The pIC50 at KEAP1 C151 was 7.20.
For `C=CC(=O)N1CCOCC1c1cc(Cl)nc(-c2cc[nH]c(=O)c2)c1` (single isomer, unassigned) [Compound 33, 4-(4-acryloylmorpholin-3-yl)-6-chloro-[2,4′-bipyridin]-2′(1′H)-one] the same measures were 82% and 6.92.
For the compound `C=CC(=O)N1CCOCC1c1cc(Cl)cc(-c2ccc3nccnc3c2)c1` (single isomer, unassigned) [Compound 34, 1-(3-(3-chloro-5-(quinoxalin-6-yl)phenyl)morpholino)prop-2-en-1-one], the Emax in the experiment on Nrf2 turned out to be 83%. The pIC50 at KEAP1 C151 was 7.74.
For the compound `C=CC(=O)N1CCOCC1c1cc(Cl)cc(-c2ccnc(C)n2)c1` (single isomer, unassigned) [Compound 35, 1-(3-(3-chloro-5-(2-methylpyrimidin-4-yl)phenyl)morpholino)prop-2-en-1-one], in the experiment on Nrf2, the Emax amounted to 89%. The pIC50 at KEAP1 C151 is 7.75.
Turning to `C=CC(=O)N1CCOCC1c1cc(Cl)cc(-c2cccn(C)c2=O)c1` (single isomer, unassigned) [Compound 36, 3-(3-(4-acryloylmorpholin-3-yl)-5-chlorophenyl)-1-methylpyridin-2(1H)-one], the Emax with Nrf2 came to 69%. Besides, the pIC50 on KEAP1 C151 was 6.96.
